Experimental data taken from ChEMBL document CHEMBL1201862, “PubChem BioAssay data set” (2004).
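Method: 48-hour compound exposure of cells in 96-well plates, five concentrations, linear interpolation of endpoints. Here, GI50 denotes the concentration required for 50% inhibition of growth.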 Activity calls are given as the source filed them. Rule as the data show it: active = GI50 up to about 1.1 µM and inactive = higher.

Legend:
Experiment in all cases: inhibition of tumour cell growth, NCI panel, 48 h
SF-539 = tested on: SF-539
OVCAR-8 = tested on: OVCAR-8
NCI-H522 = tested on: NCI-H522
NCI-H23 = tested on: NCI-H23
HL-60 = tested on: HL-60
SF-268 = tested on: SF-268
CCRF-CEM = tested on: CCRF-CEM
SK-MEL-5 = tested on: SK-MEL-5
IGROV-1 = tested on: IGROV-1
HOP-92 = tested on: HOP-92
KM-20L2 = tested on: KM-20L2
HCT-116 = tested on: HCT-116
Malme-3M = tested on: Malme-3M
ACHN = tested on: ACHN
EKVX = tested on: EKVX
Hs-578T = tested on: Hs-578T
T47D = tested on: T47D
MDA-MB-231 = tested on: MDA-MB-231
PC-3 = tested on: PC-3
RXF 393 = tested on: RXF 393

Compound	GI50 (SF-539)	GI50 (OVCAR-8)	GI50 (NCI-H522)	GI50 (NCI-H23)	GI50 (HL-60)	GI50 (SF-268)	GI50 (CCRF-CEM)	GI50 (SK-MEL-5)	GI50 (IGROV-1)	GI50 (HOP-92)	GI50 (KM-20L2)	GI50 (HCT-116)	GI50 (Malme-3M)	GI50 (ACHN)	GI50 (EKVX)	GI50 (Hs-578T)	GI50 (T47D)	GI50 (MDA-MB-231)	GI50 (PC-3)	GI50 (RXF 393)
CC(=O)Nc1cc(N(CCOS(C)(=O)=O)CCOS(C)(=O)=O)ccc1N=O	> 100 µM (inactive)	> 100 µM (inactive)	> 100 µM (inactive)	> 100 µM (inactive)	> 100 µM (inactive)	> 100 µM (inactive)	> 100 µM (inactive)	> 100 µM (inactive)	> 100 µM (inactive)	> 100 µM (inactive)	> 100 µM (inactive)	> 100 µM (inactive)	> 100 µM (inactive)	> 100 µM (inactive)	–	–	–	–	–	–
COc1ccc(/C=C2/C(=O)N(C(=O)c3ccc(Cl)cc3)N=C2C)cc1OC	> 100 µM (inactive)	> 100 µM (inactive)	> 100 µM (inactive)	> 100 µM (inactive)	> 100 µM (inactive)	> 100 µM (inactive)	> 100 µM (inactive)	> 100 µM (inactive)	> 100 µM (inactive)	> 100 µM (inactive)	> 100 µM (inactive)	> 100 µM (inactive)	> 100 µM (inactive)	> 100 µM (inactive)	> 100 µM (inactive)	–	–	–	–	–
CCC1(CC)C(=O)CC[C@@]2(C)C1=CC[C@H]1[C@@H]3CC[C@H](O)[C@@]3(C)CC[C@@H]12	29.2 µM (inactive)	23.5 µM (inactive)	19.8 µM (inactive)	48.9 µM (inactive)	18.6 µM (inactive)	32.5 µM (inactive)	19.6 µM (inactive)	47.3 µM (inactive)	37.8 µM (inactive)	37.5 µM (inactive)	–	22.2 µM (inactive)	36.1 µM (inactive)	40.4 µM (inactive)	28.5 µM (inactive)	24.4 µM (inactive)	28.9 µM (inactive)	47.9 µM (inactive)	30.3 µM (inactive)	36.6 µM (inactive)
CCOc1ccc(/N=N/c2ccc3cc(/C(C)=N/NC(=O)/C(C#N)=C\c4ccc(N(CCC#N)CCC#N)cc4)c(=O)oc3c2)cc1	> 10 µM (inactive)	> 10 µM (inactive)	> 10 µM (inactive)	> 10 µM (inactive)	> 10 µM (inactive)	> 10 µM (inactive)	> 10 µM (inactive)	> 10 µM (inactive)	> 10 µM (inactive)	> 10 µM (inactive)	–	> 10 µM (inactive)	> 10 µM (inactive)	> 10 µM (inactive)	> 10 µM (inactive)	> 10 µM (inactive)	> 10 µM (inactive)	> 10 µM (inactive)	> 10 µM (inactive)	> 10 µM (inactive)
COc1ccccc1N1C(=O)/C(=C/c2ccc(N(CCC#N)CCC#N)cc2C)N=C1c1cc([N+](=O)[O-])ccc1Cl	> 100 µM (inactive)	> 100 µM (inactive)	> 100 µM (inactive)	> 100 µM (inactive)	> 100 µM (inactive)	> 100 µM (inactive)	> 100 µM (inactive)	> 100 µM (inactive)	> 100 µM (inactive)	–	> 100 µM (inactive)	> 100 µM (inactive)	> 100 µM (inactive)	> 100 µM (inactive)	> 100 µM (inactive)	–	–	–	–	–
CC(C)C(C/C=C1\CC(CO)(COC(=O)CC(C(C)C)C(C)C)OC1=O)C(C)C (stereo unspecified)	18.3 µM (inactive)	17.9 µM (inactive)	13.8 µM (inactive)	15 µM (inactive)	2.74 µM (inactive)	14.2 µM (inactive)	4.06 µM (inactive)	11 µM (inactive)	14.7 µM (inactive)	0.902 µM (active)	–	14.1 µM (inactive)	1.45 µM (inactive)	10.3 µM (inactive)	10 µM (inactive)	3.8 µM (inactive)	13.3 µM (inactive)	12.8 µM (inactive)	11.7 µM (inactive)	14.5 µM (inactive)
N=C1/C(=C/c2ccccc2)C(=O)N=C2SC=NN12	29.7 µM (inactive)	> 100 µM (inactive)	> 100 µM (inactive)	> 100 µM (inactive)	> 100 µM (inactive)	> 100 µM (inactive)	> 100 µM (inactive)	> 100 µM (inactive)	> 100 µM (inactive)	> 100 µM (inactive)	–	> 100 µM (inactive)	> 100 µM (inactive)	> 100 µM (inactive)	> 100 µM (inactive)	> 100 µM (inactive)	> 100 µM (inactive)	> 100 µM (inactive)	> 100 µM (inactive)	> 100 µM (inactive)
O=C1Nc2ccccc2/C1=N/NS(=O)(=O)c1ccc(C(=O)O)cc1	> 100 µM (inactive)	> 100 µM (inactive)	> 100 µM (inactive)	> 100 µM (inactive)	> 100 µM (inactive)	> 100 µM (inactive)	> 100 µM (inactive)	> 100 µM (inactive)	> 100 µM (inactive)	> 100 µM (inactive)	–	> 100 µM (inactive)	> 100 µM (inactive)	> 100 µM (inactive)	74.5 µM (inactive)	> 100 µM (inactive)	> 100 µM (inactive)	> 100 µM (inactive)	> 100 µM (inactive)	> 100 µM (inactive)
CN(CCn1cnc2c1c(=O)n(C)c(=O)n2C)C1CCCCC1	> 100 µM (inactive)	> 100 µM (inactive)	> 100 µM (inactive)	> 100 µM (inactive)	> 100 µM (inactive)	> 100 µM (inactive)	> 100 µM (inactive)	> 100 µM (inactive)	> 100 µM (inactive)	> 100 µM (inactive)	–	> 100 µM (inactive)	> 100 µM (inactive)	> 100 µM (inactive)	> 100 µM (inactive)	> 100 µM (inactive)	> 100 µM (inactive)	> 100 µM (inactive)	> 100 µM (inactive)	> 100 µM (inactive)
COc1ccc2nc3ccc(OC)cc3c(SCCO)c2c1	20.7 µM (inactive)	17 µM (inactive)	4.56 µM (inactive)	16.2 µM (inactive)	4.17 µM (inactive)	25.2 µM (inactive)	3.61 µM (inactive)	32.1 µM (inactive)	15 µM (inactive)	> 67.5 µM (inactive)	–	15.8 µM (inactive)	15.6 µM (inactive)	23.7 µM (inactive)	31.7 µM (inactive)	15.4 µM (inactive)	15.8 µM (inactive)	34.7 µM (inactive)	27.4 µM (inactive)	12.6 µM (inactive)
COC(=O)c1c2c(cc3c1CC1(C3)Cc3ccc4c(c3C1=O)CCC4)CCC2 (stereo unspecified)	2.38 µM (inactive)	4.61 µM (inactive)	1.66 µM (inactive)	3.74 µM (inactive)	2.52 µM (inactive)	6.31 µM (inactive)	3.63 µM (inactive)	2.38 µM (inactive)	4.99 µM (inactive)	1.84 µM (inactive)	–	3.01 µM (inactive)	3.39 µM (inactive)	5.15 µM (inactive)	8.17 µM (inactive)	1.91 µM (inactive)	5.13 µM (inactive)	2.01 µM (inactive)	1.79 µM (inactive)	0.537 µM (active)
C=C(C)CC1=C(C(=S)NCCO[Si](C)(C)C(C)(C)C)C(OCC)(OCC)C1=O	19.9 µM (inactive)	40.6 µM (inactive)	13.7 µM (inactive)	16.9 µM (inactive)	> 100 µM (inactive)	19.1 µM (inactive)	> 100 µM (inactive)	15.2 µM (inactive)	15.9 µM (inactive)	29.8 µM (inactive)	–	18.2 µM (inactive)	12.7 µM (inactive)	18 µM (inactive)	16.6 µM (inactive)	24.8 µM (inactive)	11.4 µM (inactive)	26.4 µM (inactive)	14.8 µM (inactive)	13.6 µM (inactive)
CC(C)C(Cl)CCC(C)(Cl)C(=O)CBr (stereo unspecified)	16.9 µM (inactive)	3.37 µM (inactive)	1.06 µM (active)	5.5 µM (inactive)	0.425 µM (active)	20.7 µM (inactive)	0.331 µM (active)	3.24 µM (inactive)	6.67 µM (inactive)	10 µM (inactive)	–	3.03 µM (inactive)	9.57 µM (inactive)	7.19 µM (inactive)	18.2 µM (inactive)	5.73 µM (inactive)	2.44 µM (inactive)	5.37 µM (inactive)	8.3 µM (inactive)	2.44 µM (inactive)
C=CC[C@H]1[C@@H](O[Si](C)(C)C(C)(C)C)[C@H](n2ccc(=O)[nH]c2=O)O[C@@H]1CO[Si](C)(C)C(C)(C)C	4.19 µM (inactive)	1.87 µM (inactive)	1.76 µM (inactive)	2.14 µM (inactive)	0.971 µM (active)	2.99 µM (inactive)	2.52 µM (inactive)	1.72 µM (inactive)	2.32 µM (inactive)	1.21 µM (inactive)	–	1.47 µM (inactive)	2.89 µM (inactive)	2.33 µM (inactive)	1.67 µM (inactive)	3.01 µM (inactive)	2.61 µM (inactive)	1.96 µM (inactive)	2.44 µM (inactive)	1.56 µM (inactive)
CC1=C[C@@H](C)C[C@]2(C)CC[C@H](O2)[C@]23CC[C@](C(=O)O)(C[C@H](O2)[C@@H]2O[C@@](C)(CC2=O)[C@@H](O)[C@H]2CC[C@@]4(CCC[C@@H](O4)[C@H](C)C(=O)O[C@H]4C[C@H]([C@]5(O)OCC[C@H](C)[C@@H]5O)O[C@H]4C=C1)O2)O3	> 5.82 µM (inactive)	> 10 µM (inactive)	> 7.71 µM (inactive)	> 10 µM (inactive)	> 10 µM (inactive)	> 10 µM (inactive)	> 10 µM (inactive)	> 7.23 µM (inactive)	> 5.5 µM (inactive)	> 3.92 µM (inactive)	–	> 10 µM (inactive)	> 10 µM (inactive)	> 10 µM (inactive)	> 10 µM (inactive)	> 3.78 µM (inactive)	> 10 µM (inactive)	> 10 µM (inactive)	> 10 µM (inactive)	> 10 µM (inactive)
